# Like-named read-outs stand apart in the source and are kept apart here.
# Experiments:
# [1] = test system: Primary epidermal keratinocyte cultures (HEKa); test: Keratinocyte cytotoxicity (LC50), MTT; format: cell-based, human; details: HEKa cells
# Protocol: Primary epidermal keratinocyte cultures from an adult human source (HEKa) were purchased from Invitrogen Corp (Carlsbad, Calif.) and used for all cytotoxicity experiments. Cells were maintained in a humidified incubator (37° C., 5% CO2), in EpiLife medium with 60 μM calcium and phenol red, supplemented with 10 ml/l human keratinocyte growth supplement, 5 IU/ml penicillin and 5 μg/ml streptomycin. All components of growth media were purchased from Invitrogen Corp (Carlsbad, Calif.). Cells were grown to 70-80% confluence in cell culture flasks (Corning, Lowell, Mass.) as per suppliers' protocols.
# At the end of the growth period, keratinocyte cells were seeded at a density of 10^4 cells/well in 96-well tissue culture treated polystyrene plates (Corning, Lowell, Mass.) and incubated overnight to allow cell attachment. Cells were supplied with fresh EpiLife medium (90 μl/well) at the start of experiment, followed by application of test formulations (10 μl/well). The final concentration of test formulations in each well was 0.0001% w/v. This concentration limit was determined based on the LC50 values of component chemicals for HEKa cell line, which were determined in a separate experiment. The cells were incubated with the test formulations for 1 hour. […] The plates were incubated for 16 hours in a humidified environment and absorbance was read at 570 nm.
# [2] = test system: B. thailendensis; test: Minimum inhibitory concentration, broth microdilution; format: cell-based; details: 18 hours, 37° C.
# Protocol: Minimum inhibitory concentration against B. thailendensis was determined. Broth microdilution method was followed for MIC determination. Briefly, fresh cultures were grown on the day of experiment using the protocol described below.
# Low sodium Leuria-Bertani (LSLB) broth (10 g tryptone 1-1, 5 g yeast extract 1-1, 5 g NaCl 1-1) made in ultrapure water and sterilized via autoclaving (121° C., 15 min) was used for culturing B. thailendensis. Culturing protocol was same as given above for E. coli.
# The cultures were adjusted to 5.5×10^5 cfu/ml and used within 30 minutes to minimize change in bacterial counts. Cultures were dispensed in 96-well cell culture polypropylene plates (Corning, Lowell, Mass.) at 90 μl/well. Serial dilutions of test formulations were made at 10× concentration. Inoculums in each well were incubated with 10 μl of test formulation dilutions for 18 hours at 37° C. under humidified conditions. At the end of incubation period, the plates were visibly inspected for bacterial growth. Colonies were counted for selected wells by plating culture dilutions on LSLB plates.
# [3] = test system: Caco-2 monolayers; test: Permeability of tritium-labeled mannitol or 70 kDa dextran across Caco-2 monolayers
# Protocol: (§1) Solutions containing CPEs and 1 μCi/ml of tritium-labeled mannitol or 70 kDa dextran (American Radiolabeled Chemicals, St. Louis, Mo.) were applied to the apical side of Caco-2 monolayers. Samples were taken from the basolateral compartment every 10 minutes for 1 hour and the radiolabeled contents were analyzed with a scintillation counter (Packard Tri-Carb 2100 TR, Meriden, Conn.).
# (§2) where ΔM is the amount of solute transported across the barrier in the time Δt, CM is the concentration of solute in the apical compartment, and Axs is the cross-sectional area of epithelium in contact with the apical solution.
# (§3) Positive control experiments were performed on BD Biocoat™ filter supports in the absence of cells.
# [4] = test system: Caco-2 cells; test: Toxicity potential (TP) by MTT assay and synergy (S) of mixtures; format: cell-based, human
# Protocol: As used herein “toxicity potential” or “TP” is used to assess the safety of CPEs and refers to the toxicity of one or more CPEs as determined using a Methyl Thiazole Tetrazolium (MTT) kit (American Type Culture Collection, Rockville, Md.). Caco-2 cells were seeded at 10^5 cells/well onto a 96-well plate. Enhancer solutions (100 μl) were applied for 30 minutes. 10 μl of reagent from an MTT kit (American Type Culture Collection, Rockville, Md.) was applied to each well for 5 hours, after which 100 μl of detergent was applied to each well and allowed to incubate in the dark at room temperature for about 40 hours. Absorbance was read at 570 nm (MTT dye) and 650 nm (detergent).
# TP values are reported as the fraction of nonviable cells, as compared to the negative control, DMEM. TP values range from 0 to 1, with 0 indicating no mitrochondrial toxicity, and 1 representing maximum toxicity.
# As used herein “synergy” or “S” refers to the difference between the linear average of the toxicity of the individual components and the experimentally measured toxicity of the mixture. Synergy was calculated as follows:
# S=[X1·TP1+X2·TP2+X3·TP3]−TPmix Eq. 3
# where X1, X2, and X3 are the weight fractions of single enhancers 1, 2, and 3, respectively, and TP1, TP2, TP3, and TPmix are the toxicity potentials of pure CPE 1, pure CPE 2, pure CPE 3, and the mixture of CPEs at the corresponding weight fractions X1, X2, and X3. All TP values in the equation above are obtained at the same total concentration. Since TP values can range from 0 to 1, maximum and minimum Synergy values are 1 and −1, respectively.
# Caco-2 cells were seeded at 10^5 cells/well onto a 96-well plate. Enhancer solutions (100 μl) were applied for 30 minutes. 10 μl of reagent from an MTT kit (American Type Culture Collection, Rockville, Md.) was applied to each well for 5 hours, after which 100 μl of detergent was applied to each well and allowed to incubate in the dark at room temperature for about 40 hours. Absorbance was read at 570 nm (MTT dye) and 650 nm (detergent). Toxicity potential (TP) values are reported as the fraction of nonviable cells, as compared to the negative control, DMEM. TP values range from 0 to 1, with 0 indicating no mitrochondrial toxicity, and 1 representing maximum toxicity.
# [5] = in vitro; details: human, Caco-2
# Protocol: as §1, §2, §3
# [6] = test system: Caco-2 cell line (HTB-37)
# Protocol: 10 μL of MTT solution (5 mg/mL) was added to each well for 4 h (37° C.), after which 100 μL of 100% DMSO was applied and the plates were incubated for 1 hr with moderate shaking Absorbance was measured at 570 nm using a Tecan Saffire™ fluorescent microplate reader (Tecan Group Ltd, Mannedorf, Switzerland).
# [7] = test system: intestinal epithelium; test: Intestinal tissue histology after PPS; format: in vivo, rat; details: 0.1% and 1% w/v PPS, 0.5 ml, 5 hrs, SD rats
# Protocol: Histological studies were performed to evaluate the possibility of damage caused by PPS in the intestine. […] The sections were stained using hematoxylin-eosin staining and imaged at 50× magnification using an inverted light microscope to determine signs of pathological changes.
# [8] = test system: Caco-2 monolayers; test: Transwell permeability of sulforhodamine-B or FITC-insulin with PPS; format: cell-based, human
# Excerpt: The withdrawn sample was immediately replaced with an equivalent amount of the experimental media.
# [9] = test system: Caco-2 cells; test: Calcein entry into epithelial cells, fluorescence microscopy; format: cell-based, human; details: 0.01% PPS, 0.01% (w/v) calcein
# Protocol: A solution containing a permeation enhancer and 0.01% (w/v) calcein dissolved in phosphate buffered saline was applied to Caco-2 cells. After 30 minutes, solutions were removed and replaced with a solution containing only calcein. After 1 hour, samples were washed 3× with phosphate buffered saline and viewed with a Zeiss fluorescence microscope.
# [10] = test system: Caco-2 monolayers
# Protocol: (§4) Upper filter supports containing viable Caco-2 monolayers were transferred into a 24-well BD Falcon plate and 1 ml of media was dispensed into each basolateral compartment. Solutions containing the CPE (“enhancer solutions”) were applied to the apical compartment and TEER readings were taken at 10 minutes. TEER recovery was assessed by removing enhancer solutions after 30 minutes, applying fresh media, and measuring TEER values at 24 hours.
# [11] = Plasma sCT concentration after intestinal injection of sCT with or without PPS; format: in vivo, rat; details: 1% w/v PPS with sCT 3 mg/kg, SD rats
# Protocol: Adult male Sprague-Dawley (SD) rats of 275-300 g, fasted for 7 hours were used for all studies. A midline abdominal incision of 2.5-3.0 cm was made in animals anesthetized by 1.5-3.0% isoflurane to expose the gastrointestinal system. […] Incision was then closed with sterile vicryl […] (muscular), and Vetbond® tissue glue (skin). Blood samples were collected up to 5 hours by tail vein bleeding (heparinized tubes for plasma Calcium, and EDTA tubes for plasma sCT determination), and plasma was separated for analysis of both pharmacodynamic and pharmacokinetic response. Pharmacodynamic response was measured by quantifying plasma calcium levels using a colorimetric calcium assay kit (Sciencell Laboratories, Carlsbad, Calif.); and pharmacokinetic efficacy was tested by quantifying plasma concentrations of salmon calcitonin (sCT) using an extraction-free ELISA kit (Bachem Americas Inc., Torrance, Calif.) following manufacturer's protocols.
# [12] = test system: Caco-2 monolayers; test: TEER reversibility after PPS exposure; format: cell-based, human; details: 0.03% w/v PPS for 10 minutes or 1 hour; within 24 hours of removal
# [13] = test system: Caco-2 monolayers; test: TEER over time with PPS (Example 5); format: cell-based, human; details: for decrease in TEER (% of initial value): 5 hours
# Protocol: Caco-2 cell line HTB-37 (ATCC, Rockville, Md.), derived from human colon cells, was used for all experiments. Cells were maintained in DMEM supplemented with 25 IU/ml of penicillin, 25 mg/L of streptomycin, 250 μg/L of amphotericin B and 100 ml/L of fetal bovine serum. Monolayers were grown on BD Biocoat™ HTS collagen filter supports (BD Biosciences, Bedford, Mass.) according to supplier instructions. At the end of the growth period, the integrity of the cell monolayer was confirmed by transepithelial electrical resistance (TEER) measurements (Millicell-ERS voltohmmeter, Millipore, Billerica, Mass.). Only monolayers with TEER values in the range of 150-200 Ω-cm^2 were used for further experimentation.
# [14] = test system: Caco-2 monolayer; test: Confocal laser microscopy of FITC-insulin permeation with PPS; format: cell-based, human; details: 5 hours
# Excerpt: Following fixation, cells were gently washed with HBSS, membranes gently removed from the plastic insert, and were mounted on a microscopy slide with DAPI containing cell mounting media (Vectashield® Hardset®, Vector Laboratories, Burlingame, Calif.). All samples were imaged on a confocal microscope (Leica and Olympus Fluoview 500).
# [15] = test system: Caco-2 cells; details: 0.1% enhancer
# Protocol: Enhancer solutions (100 μl) were applied for 30 minutes. 25 μl of the solution was then transferred to a fresh 96-well plate and mixed with 25 μl of LDH reagent from the CytoTox 96® assay (Promega, Madison, Wis.) and allowed to react for 30 minutes in the dark at room temperature. Stop solution (25 μl) was then added to each well, and the absorbance was read at 490 nm. LDH potential (LP) values are reported as the fraction of maximal LDH release, as determined by the positive control lysis solution provided with the assay kit (˜1% Triton-X100).
# Equation 5 was used to assess the relative contribution of transcellular and paracellular pathways to permeability of the intestinal epithelium. […] According to Equation 4, the line EP=LP corresponds to enhancers that act predominantly by the transcellular route (paracellular contributions are negligible). Enhancers lying on the vertical EP axis primarily utilize the paracellular pathway, since there is no relationship between EP and LP when transcellular contributions are negligible. The relative contribution of the paracellular pathway is higher for enhancers falling closer to the EP axis than to the EP=LP line.
# [16] = test system: Caco-2 monolayer; details: 0.1% enhancer (total), 10 min
# Protocol: The Examples described herein used 1% Triton X-100 as the positive control.
# All TEER values were normalized by their initial values.
# where TEERCPE and TEER+ are the resistance values (% of initial) of the enhancer solution and positive control solution, respectively, after 10 minutes of exposure. EP lies on a scale of 0 to 1, with 1 representing maximum enhancement as compared to the positive control.
# Caco-2 cell line HTB-37 (ATCC, Rockville, Md.), derived from human colon cells, was used for all experiments. Cells were maintained in DMEM supplemented with 25 IU/ml of penicillin, 25 mg/L of streptomycin, 250 ug/L of amphotericin B and 100 ml/L of fetal bovine serum. Monolayers were grown on BD Biocoat™ collagen filter supports (Discovery Labware, Bedford, Mass.) according to supplier instructions. […]
# as §4
compound,measurement,setting,value
benzalkoniium chloride [BZK],LC50,[1],0.00078 % w/v
same,MIC,[2],0.00048 % w/v
dextran [reference compound],average permeability in the absence of CPEs,"[3]; no CPE, Caco-2 monolayers",4.9×10^−7±2.3×10^−7
Sodium laureth sulfate [SLA],TP,[4],0.88
"OC[C@@H](O)[C@@H](O)[C@H](O)[C@H](O)CO [mannitol, reference compound]","Papp A→B at 1 h, 1 μCi/ml",[5],4.3 nm/s
"CCCCCCCCCC[N+](C)(C)C.[Br-] [DTAB, Decyltrimethyl ammonium bromide]",TP,"[4]; 0.1% enhancer (total), 30 min",0.56
"CCCCCCCCCCCCCCCC[N+](C)(C)CCCS(=O)(=O)[O-] [PPS, Palmityldimethyl ammonio propane sulfonate]",cell viability,[6],~88%
same,toxicity on Caco-2 cells,[6]; Caco-2,no detectable toxicity
same,pathological damage to the intestinal epithelium,[7],no evidences of necrosis or specific inflammation
same,increase in sulforhodamine transport over negative control,[8]; 0.01% PPS,1.7 fold
same,increase in sulforhodamine transport over negative control,[8]; 0.03% PPS,2.6 fold
same,enhancement of FITC-insulin transport,[8]; 0.03% w/v PPS,2.3 fold
same,enhancement of FITC-insulin transport,[8]; lower concentrations of PPS (0.01% w/v),did not increase significantly
same,epithelial cells with calcein transport into the cell,[9],more than 75%
same,TP,"[4]; 0.01% (w/v) enhancer, 30 min",0
same,cell monolayer structure by TEER recovery,[10],did not damage cell monolayer structure
same,enhancement of systemic sCT availability based on peak plasma concentrations,[11],45-50 fold
same,TEER values returned (% of initial),[12],90-100%
same,decrease in TEER (% of initial value),[13]; 0.01% w/v PPS,50%
same,decrease in TEER (% of initial value),[13]; 0.03% w/v PPS,~70%
same,drop in TEER,"[13]; higher concentration (0.03% w/v PPS), 15 minutes",−50%
same,increase of FITC-insulin transport across the monolayer (fluorescence intensity),[14]; 0.01% PPS,1.3 fold
same,increase of FITC-insulin transport across the monolayer (fluorescence intensity),[14]; 0.03% w/v PPS,3.1 fold
"FITC-insulin: tracer molecule, FITC-insulin (˜6,000 da)",Apparent Permeability (Papp),[8]; Caco-2,15.6 ± 0.7 10^−6 cm/s
CCN(CC)c1ccc2c(-c3ccc(S(=O)(=O)O)cc3S(=O)(=O)[O-])c3ccc(=[N+](CC)CC)cc-3oc2c1 [Sulforhodamine-B],% Transport,"[8]; PPS 0.01%, 0.15 mg",3.3 ± 0.4%
same,Apparent Permeability (Papp),"[8]; PPS 0.01%, 0.15 mg",6.0 ± 0.6 10^−6 cm/s
same,% Transport,"[8]; PPS 0.03%, 0.15 mg",5.1 ± 0.9%
same,Apparent Permeability (Papp),"[8]; PPS 0.03%, 0.15 mg",9.1 ± 1.6 10^−6 cm/s
same,% Transport,"[8]; no PPS, 0.15 mg",1.9 ± 1.3%
same,Apparent Permeability (Papp),"[8]; no PPS, 0.15 mg",3.5 ± 2.3 10^−6 cm/s
sorbitan monolaurate [S20],LC50,[1],negligible toxicity
same,MIC,[2],low antibacterial potency
"c1ccc(N2CCNCC2)cc1 [PPZ, Phenyl piperazine]",TP,"[4]; 0.1% enhancer (total), 30 min",0.09
same,"TEER recovery, % of original value","[10]; after removal of 0.1% PPZ, within 24 hours",100%
same,increase of 70 kDa dextran permeability,"[3]; enhancer at 0.1%, 70 kDa dextran",> 11 fold
same,increase of mannitol permeability,"[3]; enhancer at 0.1%, mannitol",more than 14 fold
same,K,[15],0.86
same,EP,[16],0.95

# — US20130274352A1, “Oral Drug Devices and Drug Formulations” (The Regents of the University of California, priority 2009, published 2013)
